Measured values reported in patent US9822124B2, “Bicyclic heteroaromatic carboxamide compounds useful as Pim kinase inhibitors” (Incyte Corporation, priority 2014, dated 2017).
pIC50: −log10 of the molar value.

Assays:
Type in all cases: biochemical
[1] = molecular target: Pim-3 (Homo sapiens (Human), UniProt Q86V86); assay: Pim-3 kinase assay (AlphaScreen, Biotin-labeled BAD peptide substrate); settings: 1 mM ATP; read-out: Pim3 IC50
Procedure: (§1) Pim-1 and Pim-3 kinase assays—20 μL reactions were run in white 384 well polystyrene plates dotted with 0.8 μL compound/DMSO in the assay buffer (50 mM Tris, pH 7.5, 0.01% Tween-20, 5 mM MgCl2, 0.01% BSA, 5 mM DTT), containing 0.05 μM Biotin-labeled BAD peptide substrate (AnaSpec 62269), 1 mM ATP, and […] (Pim-1, Invitrogen PV3503) or […] (Pim-3, Millipore 14-738) enzyme for 1 h at 25° C. Reactions were stopped by addition of 10 μL STOP Buffer (150 mM Tris, pH=7.5, 150 mM NaCl, 75 mM EDTA, 0.01% Tween-20, 0.3% BSA) supplemented with Phospho-Bad (Ser112) Antibody (Cell Signaling 9291) diluted 666-fold, and Streptavidin donor beads (PerkinElmer 6760002) along with Protein-A acceptor beads (PerkinElmer 6760137) at 15 μg/mL each. Supplementation of the STOP buffer with beads and stopping the reactions were done under reduced light. Prior to the stopping reactions STOP buffer with beads was preincubated for 1 h in the dark at room temperature. After stopping the reactions, plates were incubated for 1 h in the dark at room temperature before reading on a PHERAstar FS plate reader (BMG Labtech) under reduced light.

[2] = molecular target: Pim-1 (Homo sapiens (Human), UniProt P11309); assay: Pim-1 kinase assay (AlphaScreen, Biotin-labeled BAD peptide substrate); settings: 1 mM ATP; read-out: Pim1 IC50
Pim-1, sequence (P11309 whole entry): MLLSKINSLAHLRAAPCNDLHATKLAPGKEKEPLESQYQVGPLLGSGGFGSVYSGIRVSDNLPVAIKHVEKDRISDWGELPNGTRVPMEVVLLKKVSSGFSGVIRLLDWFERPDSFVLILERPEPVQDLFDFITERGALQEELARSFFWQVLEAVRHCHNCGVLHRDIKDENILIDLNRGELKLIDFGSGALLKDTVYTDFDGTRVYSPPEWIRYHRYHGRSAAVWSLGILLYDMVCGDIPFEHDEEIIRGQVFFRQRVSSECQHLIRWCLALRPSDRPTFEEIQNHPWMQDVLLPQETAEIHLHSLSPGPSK
Procedure: as §1

[3] = molecular target: Pim-2 (Homo sapiens (Human), UniProt Q9P1W9); assay: Pim-2 kinase assay (TR-FRET, Fluorescein-labeled CREBtide peptide substrate); settings: 1 mM ATP; read-out: Pim2 IC50
Pim-2, sequence (Q9P1W9 whole entry): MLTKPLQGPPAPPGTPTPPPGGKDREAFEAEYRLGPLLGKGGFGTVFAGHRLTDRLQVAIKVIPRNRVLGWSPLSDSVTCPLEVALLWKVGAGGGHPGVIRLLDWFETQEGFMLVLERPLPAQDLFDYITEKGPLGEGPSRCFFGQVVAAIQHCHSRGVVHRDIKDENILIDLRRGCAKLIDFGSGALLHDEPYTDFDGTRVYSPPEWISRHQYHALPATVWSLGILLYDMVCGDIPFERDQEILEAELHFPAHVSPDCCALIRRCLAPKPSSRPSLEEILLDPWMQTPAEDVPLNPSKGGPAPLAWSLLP
Procedure: Pim-2 kinase assay—20 μL reactions were run in white 384 well polystyrene plates dotted with 0.8 μL compound/DMSO in the assay buffer (50 mM Tris, pH 7.5, 0.01% Tween-20, 5 mM MgCl2, 0.01% BSA, 5 mM DTT), containing 0.05 μM Fluorescein-labeled CREBtide peptide substrate (Invitrogen PV3508), 1 mM ATP, and 1 nM enzyme (Invitrogen PV3649) for 2 h at 25° C. Reactions were stopped by addition of 10 μL TR-FRET Dilution Buffer (Invitrogen PV3574) with 30 mM EDTA and 1.5 nM LanthaScreen Tb-CREB pSer133 antibody (Invitrogen PV3566). After 30 min. incubation at room temperature, plates were read on a PHERAstar FS plate reader (BMG Labtech).

Structure (SMILES) | pIC50 [1] | pIC50 [2] | pIC50 [3]
C[C@@H]1C[C@H](N)CN(c2ccncc2NC(=O)c2ccc3occ(C4CCOC4)c3n2)C1 (mixture of isomers) [Example 31, N-(4-((3S,5R)-3-Amino-5-methylpiperidin-1-yl)pyridin-3-yl)-3-(tetrahydrofuran-3-yl)furo[3,2-b]pyridine-5-carboxamide] | ≥ 8.00 | ≥ 8.00 | 6.00 to 7.00
C[C@H]1CN(c2ccncc2NC(=O)c2ccc3cc([C@@H]4C[C@@H]4C)oc3n2)C[C@@H](N)[C@@H]1O (racemic) [Example 73, N-{4-[(3R,4R,5S)-3-Amino-4-hydroxy-5-methylpiperidin-1-yl]pyridin-3-yl}-2-(cis-2-methylcyclopropyl)furo[2,3-b]pyridine-6-carboxamide] | ≥ 8.00 | ≥ 8.00 | ≥ 7.00
C[C@@H]1C[C@H]1c1cc2ccc(C(=O)Nc3cnccc3N3C[C@@H](N)[C@H](O)[C@@H](C)C3)nc2o1 (racemic) [Example 74, N-{4-[(3R,4R,5S)-3-Amino-4-hydroxy-5-methylpiperidin-1-yl]pyridin-3-yl}-2-(trans-2-methylcyclopropyl)furo[2,3-b]pyridine-6-carboxamide] | ≥ 8.00 | ≥ 8.00 | ≥ 7.00
C[C@@H]1C[C@H](N)CN(c2ccncc2NC(=O)c2ccc3cc([C@@H]4C[C@@H]4C)oc3n2)C1 (racemic) [Example 75, N-{4-[(3S,5R)-3-Amino-5-methylpiperidin-1-yl]pyridin-3-yl}-2-(cis-2-methylcyclopropyl)furo[2,3-b]pyridine-6-carboxamide] | ≥ 8.00 | ≥ 8.00 | ≥ 7.00
C[C@@H]1C[C@H](N)CN(c2ccncc2NC(=O)c2ccc3cc([C@@H]4C[C@H]4C)oc3n2)C1 (racemic) [Example 76, N-{4-[(3S,5R)-3-Amino-5-methylpiperidin-1-yl]pyridin-3-yl}-2-(trans-2-methylcyclopropyl)furo[2,3-b]pyridine-6-carboxamide] | ≥ 8.00 | ≥ 8.00 | ≥ 7.00
CCCc1cc2nc(C(=O)Nc3cnccc3N3C[C@H](C)C[C@H](N)C3)ccc2o1 [Example 1, N-(4-((3S,5R)-3-Amino-5-methylpiperidin-1-yl)pyridin-3-yl)-2-propylfuro[3,2-b]pyridine-5-carboxamide] | ≥ 8.00 | ≥ 8.00 | 6.00 to 7.00
CC(C)c1cc2nc(C(=O)Nc3cnccc3N3C[C@H](C)C[C@H](N)C3)ccc2o1 [Example 2, N-{4-[(3S,5R)-3-Amino-5-methylpiperidin-1-yl]pyridin-3-yl}-2-isopropylfuro[3,2-b]pyridine-5-carboxamide] | ≥ 8.00 | 7.30 to 8.00 | 6.00 to 7.00
COc1ccc(-c2cc3nc(C(=O)Nc4cnccc4N4C[C@H](C)C[C@H](N)C4)ccc3o2)cn1 [Example 3, N-(4-((3S,5R)-3-Amino-5-methylpiperidin-1-yl)pyridin-3-yl)-2-(6-methoxypyridin-3-yl)furo[3,2-b]pyridine-5-carboxamide] | ≥ 8.00 | ≥ 8.00 | < 5.70
C[C@@H]1C[C@H](N)CN(c2ccncc2NC(=O)c2ccc3oc(-c4c(F)cccc4F)cc3n2)C1 [Example 4, N-(4-((3S,5R)-3-Amino-5-methylpiperidin-1-yl)pyridin-3-yl)-2-(2,6-difluorophenyl)furo[3,2-b]pyridine-5-carboxamide] | 7.30 to 8.00 | ≥ 8.00 | < 5.70
C[C@@H]1C[C@H](N)CN(c2ccncc2NC(=O)c2ccc3oc(-c4ccc(N5CCOCC5)nc4)cc3n2)C1 [Example 5, N-(4-((3S,5R)-3-Amino-5-methylpiperidin-1-yl)pyridin-3-yl)-2-(6-morpholinopyridin-3-yl)furo[3,2-b]pyridine-5-carboxamide] | ≥ 8.00 | ≥ 8.00 | 5.00 to 6.00
CC(C)c1cc2nc(C(=O)Nc3cnccc3N3C[C@@H](N)[C@H](O)[C@@H](C)C3)ccc2o1 [Example 6, N-{4-[(3R,4R,5S)-3-Amino-4-hydroxy-5-methylpiperidin-1-yl]pyridin-3-yl}-2-isopropylfuro[3,2-b]pyridine-5-carboxamide] | ≥ 8.00 | 7.30 to 8.00 | 6.00 to 7.00
COc1ccc(-c2cc3nc(C(=O)Nc4cnccc4N4C[C@@H](N)[C@H](O)[C@@H](C)C4)ccc3o2)cn1 [Example 7, N-(4-((3R,4R,5S)-3-Amino-4-hydroxy-5-methylpiperidin-1-yl)pyridin-3-yl)-2-(6-methoxypyridin-3-yl)furo[3,2-b]pyridine-5-carboxamide] | ≥ 8.00 | ≥ 8.00 | < 5.70
C[C@H]1CN(c2ccncc2NC(=O)c2ccc3oc(-c4c(F)cccc4F)cc3n2)C[C@@H](N)[C@@H]1O [Example 8, N-(4-((3R,4R,5S)-3-Amino-4-hydroxy-5-methylpiperidin-1-yl)pyridin-3-yl)-2-(2,6-difluorophenyl)furo[3,2-b]pyridine-5-carboxamide] | 7.30 to 8.00 | ≥ 8.00 | < 5.70
C[C@H]1CN(c2ccncc2NC(=O)c2ccc3oc(-c4ccc(N5CCOCC5)nc4)cc3n2)C[C@@H](N)[C@@H]1O [Example 9, N-(4-((3R,4R,5S)-3-Amino-4-hydroxy-5-methylpiperidin-1-yl)pyridin-3-yl)-2-(6-morpholinopyridin-3-yl)furo[3,2-b]pyridine-5-carboxamide] | ≥ 8.00 | ≥ 8.00 | 5.00 to 6.00
CC(C)c1coc2ccc(C(=O)Nc3cnccc3N3C[C@@H](N)[C@H](O)[C@@H](C)C3)nc12 [Example 10, N-(4-((3R,4R,5S)-3-Amino-4-hydroxy-5-methylpiperidin-1-yl)pyridin-3-yl)-3-isopropylfuro[3,2-b]pyridine-5-carboxamide] | ≥ 8.00 | ≥ 8.00 | ≥ 7.00
C[C@H]1CN(c2ccncc2NC(=O)c2ccc3occ(-c4c(F)cccc4F)c3n2)C[C@@H](N)[C@@H]1O [Example 11, N-(4-((3R,4R,5S)-3-Amino-4-hydroxy-5-methylpiperidin-1-yl)pyridin-3-yl)-3-(2,6-difluorophenyl)furo[3,2-b]pyridine-5-carboxamide] | ≥ 8.00 | ≥ 8.00 | ≥ 7.00
C[C@H]1CN(c2ccncc2NC(=O)c2ccc3occ(-c4ccccc4F)c3n2)C[C@@H](N)[C@@H]1O [Example 12, N-(4-((3R,4R,5S)-3-Amino-4-hydroxy-5-methylpiperidin-1-yl)pyridin-3-yl)-3-(2-fluorophenyl)furo[3,2-b]pyridine-5-carboxamide] | ≥ 8.00 | ≥ 8.00 | 6.00 to 7.00
COc1ccc(F)c(-c2coc3ccc(C(=O)Nc4cnccc4N4C[C@@H](N)[C@H](O)[C@@H](C)C4)nc23)c1F [Example 13, N-(4-((3R,4R,5S)-3-Amino-4-hydroxy-5-methylpiperidin-1-yl)pyridin-3-yl)-3-(2,6-difluoro-3-methoxyphenyl)furo[3,2-b]pyridine-5-carboxamide] | ≥ 8.00 | ≥ 8.00 | 6.00 to 7.00
COc1ccc(-c2coc3ccc(C(=O)Nc4cnccc4N4C[C@@H](N)[C@H](O)[C@@H](C)C4)nc23)cn1 [Example 14, N-(4-((3R,4R,5S)-3-Amino-4-hydroxy-5-methylpiperidin-1-yl)pyridin-3-yl)-3-(6-methoxypyridin-3-yl)furo[3,2-b]pyridine-5-carboxamide] | 7.30 to 8.00 | ≥ 8.00 | 5.00 to 6.00
